Measurements as given in patent US5770595A, “Oxime substituted therapeutic compounds” (Cell Therapeutics, Inc., priority 1994, dated 1998).

Experiments:
[1] = test system: THP-1 cells / TNFα-activated HUVEC; test: THP-1 cell adhesion to TNFα-activated HUVEC; type: cell-based, human; conditions: 0.1 to 10 μM
Description: This example illustrates inhibitive activity of inventive compound no. 2525 on THP-1 cell adhesion to TNFα-activated HUVEC. In an investigative assay, representative of the protocol employed in Example 23, HUVEC were stimulated with TNF α instead of IL-1β. As shown by results reported in FIG. 15, non-stimulated background adherence was approximately 1000 relative units, increasing to approximately 3000 under TNF stimulation.

VCAM in HUVEC cells = test: cell surface expression of VCAM in HUVEC; type: cell-based, human; conditions: protocol similar to Example 20; FIG. 17
Procedure: Drug inhibitory activity can also be measured by determining levels of vascular cell adhesion molecule (VCAM) in stimulated cells. Early passage human umbilical vein endothelial cells (HUVEC) (obtained from commercial suppliers such as Cell Systems, Inc. or Clonetics) are cultured in media (e.g., Hepes buffered media, Cell Systems) containing 10% fetal bovine serum, and supplemented with a stimulating agent, such as fibroblast growth factor (acidic FGF, Cell Systems, Inc.) or TNF. The cells are plated into wells of a microtiter plate (e.g., 5×10^4 per well) and allowed to incubate at 37° C. for 72 hrs. The resting cells are removed (e.g., 20-30 min treatment with 0.4% EDTA), washed in media (e.g., phosphate buffered saline plus 0.1% bovine serum albumin with 0.01% sodium azide) and labeled on ice with a monoclonal antibody ("first antibody") recognizing human VCAM (e.g., 1 μg of a murine monoclonal antibody recognizing human VCAM, Genzyme). After 60 min on ice, the cells are washed (preferably twice) with cold wash media and incubated with an antibody that recognizes the first antibody (e.g., 1 μg of goat anti-mouse IgG conjugated with phycoerythrin, CalTag, Inc.). After 30 min on ice, the cells are washed twice and analyzed on a flow cytometer (Coulter Elite®) at appropriate emission and excitation wavelengths (e.g., for phycoerytlrin use excitation at 488 nm and emission at 525 nm).
The cells were stimulated with human TNF-α (20 ng/ml) for 20 hours and then stained for immunofluorescence using a monoclonal antibody recognizing VCAM, followed by a goat anti-mouse antibody conjugated to phycoerythrin. The cells were analyzed for antibody binding using flow cytometry. […] 1521 and 1522 at the indicated drug concentrations.
This example was used to investigate inhibition of vascular cell adhesion molecule (VCAM) expression on HUVEC by inventive compound no. 2525. VCAM expression by endothelial cells is an early event in atherogenesis and multiple sclerosis, among other various autoimmune diseases. FIG. 17, a plot of percent surface expression versus concentration of compound no.

[2] = test system: THP-1 cells / IL-1β-activated HUVEC; test: THP-1 cell adhesion to IL-1β-activated HUVEC; type: cell-based, human; conditions: IL-1β 10 ng/ml, 8 hours; between 1.0 and 10 μM
Procedure: This example illustrates inhibitive activity of inventive compound no. 2525 on THP-1 cell adhesion to IL-1β-activated HUVEC. In an investigative assay, HUVEC were stimulated with IL-1β (10 ng/ml), both in the absence and presence of varying concentrations of inventive compound for 8 hours in a 96-well microtiter plate. In the wellplate, human monocytic leukemia cell line THP-1 cells were added at 50,000 cells per well. The THP-1 cells were pre-incubated with BCECF, a fluorescence dye that can be use to measure cell number using a fluorescence plate reader. After 10 minutes at 37° C., the microtiter plate was inverted and spun at 900 rpm. The remaining adhering THP-1 cells were then analyzed. […] The inventive compound no.

ICAM in HUVEC cells = test: cell surface expression of ICAM in HUVEC; type: cell-based; conditions: human TNF-α 20 ng/ml, 20 hours
Procedure: 2525 to inhibit cell surface expression of ICAM in HUVEC cells. The cells were stimulated with human TNF-α (20 ng/ml) for 20 hours and then stained for immunofluorescence using a monoclonal antibody recognizing ICAM, followed by a goat anti-mouse antibody conjugated to phycoerythrin. The cells were analyzed for antibody binding using flow cytometry. FIG. 16 reports % surface expression, determined by analysis of mean fluorescence intensity of cells analyzed by flow cytometry, for compound no. 2525, at concentration shown. As reported, compound no.

[3] = U.S. Pat. Nos. 4,515,795 and 4,576,947; cited from earlier work
[4] = test system: polymorphonuclear leukocytes; conditions: in response to a stimulator of chemotaxis; U.S. Pat. No. 4,636,507; cited from earlier work
[5] = test system: PBMC (peripheral blood mononuclear cells); test: two-way mixed lymphocyte reaction; type: cell-based, human; conditions: Example 28; protocol similar to Example 10
Description: Various in vitro assays can be used to measure effects of the inventive compounds to module immune activity and have antitumor activity using a variety of cellular types. For example, a mixed lymphocyte reaction (MLR) provides a valuable screening tool to determine biological activity of each inventive compound. In the MLR, PBMCs (peripheral blood mononuclear cells) are obtained by drawing whole blood from healthy volunteers in a heparinized container and diluted with an equal volume of hanks balanced salt solution (HBSS). This mixture is layered on a sucrose density gradient, such as a Ficoll-Hypaque® gradient (specific gravity 1.08), and centrifuged at 1000×g for 25 minutes at room temperature or cooler. PBMC are obtained from a band at a plasma-Ficoll interface, separated and washed at least twice in a saline solution, such as HBSS. Contaminating red cells are lysed, such as by ACK lysis for 10 min at 37° C., and the PBMCs are washed twice in HBSS. The pellet of purified PBMCs is resuspended in complete medium, such as RPMI 1640 plus 20% human inactivated serum. Proliferative response of PBMC to allogeneic stimulation is determined in a two-way MLR performed in a 96-well microtiter plate. Briefly, approximately 10^5 test purified PBMC cells in 200 μl complete medium are co-cultured with approximately 10^5 autologous (control culture) or allogeneic (stimulated culture) PBMC cells, wherein the allogeneic cells are from HLA disparate individuals. Varying doses of compounds (drug) are added at the time of addition of cells to the microtiter plate. The cultures are incubated for 6 days at 37° C. in a 5% CO2 atmosphere. At the conclusion of the incubation tritiated thymidine is added (for example, 1 μCi/well of 40 to 60 Ci/mmole) and proliferation determined by liquid scintillation. counting.
Example 10 illustrates a mixed lymphocyte reaction of inventive compounds nos. 1521 and 1522 (see above for chemical name and structure). […] Both compounds nos. […]

murine thymocyte = test: thymocyte proliferation stimulated by ConA and IL-2; type: cell-based, murine (female Balb/C mice); conditions: ConA, IL-2 15 U/ml; FIG. 18 (IC50 curve)
Procedure: A thymocyte costimulator assay is conducted to evaluate the inventive compounds to inhibit activation and proliferation of thymocytes caused by stimulation with Con A and interleukin-1 (IL-1), or […]. Thymuses are obtained from mice (e.g., female Balb/C mice) and the thymuses are removed and dissociated into culture media (e.g., RPMI 1640 without serum supplementation). The dissociated thymus tissue and cell suspension is transferred to centrifuge tubes and allowed to settle, washed with HBSS and resuspended in serum-supplemented culture media (e.g., RPMI 1640 with 10% fetal calf serum). Any contaminating red cells are lysed, and viable cells are resuspended and counted. Thymocytes are plated (e.g., 96-well plates at a density of 2×10^5 cells/well) and a stimulating agent, such as Con A, IL-1 (e.g., IL-1α) or IL-2 is added to the well. The cells are incubated for 4 days at 37° C. On the fourth day, the cells are pulsed with tritiated thymidine and cell proliferation determined. […]
1522 on inhibition of thymocyte proliferation stimulated by ConA and interleukin-2 (IL-2) (20 ng/ml). Compound no. […]
Thymuses, obtained from normal, female Balb/C mice, were dissociated and plated into 96-well plates at a density of 2×10^5 cells/well. […] The amount of tritiated thymidine dye incorporated by the harvested cells was determined in a liquid scintillation counter. […]

In the case of `CC(CCCCCCCCCCn1c(=O)c2c(ncn2C)n(C)c1=O)=NO` [compound 2525], the “inhibition of THP-1 adhesion to TNFα-activated HUVEC” value [1] is reported as “significantly inhibited THP-1 adhesion”, the “inhibition of VCAM surface expression” value (VCAM in HUVEC cells) is reported as “able to inhibit surface expression of VCAM” and the “inhibition of THP-1 adhesion to IL-1β-activated HUVEC” value [2] is reported as “significantly inhibited THP-1 adhesion”. The “inhibition of ICAM surface expression” value (ICAM in HUVEC cells) was “inhibited ICAM surface expression”.
In the case of `CC(O)CCCCn1c(=O)c2c(ncn2C)n(C)c1=O` (centres unmarked) [M1, 1-(5-hydroxyhexyl)-3,7-dimethylxanthine], the cerebral blood flow [3] is given as “increasing cerebral blood flow” and the “stimulation of chemotaxis in polymorphonuclear leukocytes” value [4] is given as “stimulate chemotaxis in polymorphonuclear leukocytes”.
With `CC(CCCCCCCCCn1c(=O)c2c(ncn2C)n(C)c1=O)=NO` [compound 2514] the “proliferative response of lymphocytes in mixed lymphocyte reaction” value [5] was “showed activity in this immune modulating activity assay procedure” and the “inhibition of thymocyte proliferation, ConA + IL-2” value (murine thymocyte) was “inhibit thymocyte proliferation and activation”.
